Reference: PubChem BioAssay AID328 (DTP/NCI, 2004)
“And” between values parts separate entries of the source, which are not always exact repeats. Identical values can stand only once. Inconclusive results and toxic doses are left out.

Tested on: BDF1 mice, P388 leukemia ip, median survival T/C
Test: NCI In Vivo Anticancer Drug Screen. Data for tumor model P388 Leukemia (intraperitoneal) in B6D2F1 (BDF1) mice
Conditions: endpoint: median survival time, higher = longer survival
Procedure, shortened: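 T/C = treated-group survival ÷ vehicle-control survival; tumour transplanted into mice before dosing.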

[1] = dose: 100.0 mg/kg/injection, schedule: Q01DX009 (ip), vehicle: Klucel (hydroxypropylcellulose) (HPC)
[2] = dose: 200.0 mg/kg/injection, schedule: Q01DX009 (ip), vehicle: Klucel (hydroxypropylcellulose) (HPC)
[3] = dose: 12.5 mg/kg/injection, schedule: Q01DX009 (ip), vehicle: saline with Tween-80
[4] = dose: 25.0 mg/kg/injection, schedule: Q01DX009 (ip), vehicle: saline with Tween-80
[5] = dose: 50.0 mg/kg/injection, schedule: Q01DX009 (ip), vehicle: saline with Tween-80
[6] = dose: 100.0 mg/kg/injection, schedule: Q01DX009 (ip), vehicle: saline with Tween-80
[7] = dose: 6.25 mg/kg/injection, schedule: Q01DX009 (ip), vehicle: saline
[8] = dose: 100.0 mg/kg/injection, schedule: Q04DX003 (ip), vehicle: Klucel (hydroxypropylcellulose) (HPC)
[9] = dose: 200.0 mg/kg/injection, schedule: Q04DX003 (ip), vehicle: Klucel (hydroxypropylcellulose) (HPC)
[10] = dose: 400.0 mg/kg/injection, schedule: Q04DX003 (ip), vehicle: Klucel (hydroxypropylcellulose) (HPC)
[11] = dose: 25.0 mg/kg/injection, schedule: Q04DX003 (ip), vehicle: Klucel (hydroxypropylcellulose) (HPC)
[12] = dose: 50.0 mg/kg/injection, schedule: Q04DX003 (ip), vehicle: Klucel (hydroxypropylcellulose) (HPC)

What does the source list for `CO[C@H]1C[C@H](O[C@H]2CC[C@]3(C=O)[C@H]4CC[C@]5(C)[C@@H](C6=CC(=O)OC6)CC[C@]5(O)[C@@H]4CC[C@]3(O)C2)O[C@H](C)[C@H]1O`?
T/C (dose: 0.62 mg/kg/injection, schedule: Q01DX010 (ip), vehicle: steriod suspending solution): 95 % of control; T/C (dose: 1.25 mg/kg/injection, schedule: Q01DX010 (ip), vehicle: steriod suspending solution): 90 % of control; T/C (dose: 2.5 mg/kg/injection, schedule: Q01DX010 (ip), vehicle: steriod suspending solution): 95 % of control; T/C (dose: 5.0 mg/kg/injection, schedule: Q01DX010 (ip), vehicle: steriod suspending solution): 90 % of control

`O=C1C=C(N2CC2)C(=O)C(N2CC2)=C1N1CC1` was tested. Which T/C (dose: 0.02 mg/kg/injection, schedule: Q01DX009 (ip), vehicle: saline) did it give?
Its T/C is 265 % of control and 328 % of control.

And the T/C (dose: 0.04 mg/kg/injection, schedule: Q01DX009 (ip), vehicle: saline)?
Its T/C is 98 % of control.

`OCCCC1CCCCN1` (centres undefined) was tested. Which T/C (dose: 25.0 mg/kg/injection, schedule: Q04DX003 (ip), vehicle: saline) did it give?
The T/C was 115 % of control.

And the T/C (dose: 50.0 mg/kg/injection, schedule: Q04DX003 (ip), vehicle: saline)?
Its T/C is 100 % of control.

And the T/C (dose: 100.0 mg/kg/injection, schedule: Q04DX003 (ip), vehicle: saline)?
Its T/C is 105 % of control.

`CCCCCCCCC(C(O)c1ccccc1)C(O)(C(F)(F)F)C(F)(F)F` (centres undefined) was tested. Which T/C (dose: 100.0 mg/kg/injection, schedule: Q04DX003 (ip), vehicle: other) did it give?
The T/C was 90 % of control.

What about the T/C (dose: 200.0 mg/kg/injection, schedule: Q04DX003 (ip), vehicle: other) of the same compound?
The T/C was 95 % of control.

What about the T/C (dose: 400.0 mg/kg/injection, schedule: Q04DX003 (ip), vehicle: other) of the same compound?
The T/C was 115 % of control.

What does the source list for `[Co].[N-]=C=S.[N-]=C=S.[N-]=C=S.[NH2-].[NH2-].[NH2-]`?
T/C (dose: 12.5 mg/kg/injection, schedule: Q01DX005 (ip), vehicle: saline with Tween-80): 107 % of control; T/C (dose: 25.0 mg/kg/injection, schedule: Q01DX005 (ip), vehicle: saline with Tween-80): 110 % of control; T/C (dose: 50.0 mg/kg/injection, schedule: Q01DX005 (ip), vehicle: saline with Tween-80): 117 % of control; T/C (dose: 100.0 mg/kg/injection, schedule: Q01DX001 (ip), vehicle: suspension in saline): 98 % of control; T/C (dose: 200.0 mg/kg/injection, schedule: Q01DX001 (ip), vehicle: suspension in saline): 120 % of control; T/C (dose: 400.0 mg/kg/injection, schedule: Q01DX001 (ip), vehicle: suspension in saline): 98 % of control

For `CCOC(=O)c1ccc(NC(=O)Nc2c(C)n(C)n(-c3ccccc3)c2=O)cc1`, which T/C (dose: 50.0 mg/kg/injection, schedule: Q01DX009 (ip), vehicle: Klucel (hydroxypropylcellulose) (HPC)) is on record?
Its T/C is 100 % of control.

And the T/C [1]?
The T/C was 100 % of control.

And the T/C [2]?
The T/C was 90 % of control.

For `CC#CC(=O)O`, which T/C [3] is on record?
Its T/C is 100 % of control.

And the T/C [4]?
The T/C was 106 % of control.

What about the T/C [5] of the same compound?
Its T/C is 109 % of control.

What about the T/C [6] of the same compound?
The T/C was 106 % of control.

Which results are given for `CC(C)(Br)C(=O)c1ccc([N+](=O)[O-])o1`?
T/C (dose: 0.78 mg/kg/injection, schedule: Q01DX009 (ip), vehicle: water): 95 % of control; T/C (dose: 1.56 mg/kg/injection, schedule: Q01DX009 (ip), vehicle: water): 89 % of control; T/C (dose: 3.12 mg/kg/injection, schedule: Q01DX009 (ip), vehicle: saline): 116 % of control; T/C (dose: 3.12 mg/kg/injection, schedule: Q01DX009 (ip), vehicle: water): 87 % of control; T/C [7]: 123 % of control; T/C (dose: 6.25 mg/kg/injection, schedule: Q01DX009 (ip), vehicle: water): 105 % of control; T/C [3]: 95 % of control; T/C (dose: 12.5 mg/kg/injection, schedule: Q01DX009 (ip), vehicle: water): 104 % of control; T/C [4]: 100 % of control; T/C (dose: 25.0 mg/kg/injection, schedule: Q01DX009 (ip), vehicle: saline): 116 % of control; T/C (dose: 25.0 mg/kg/injection, schedule: Q04DX003 (ip), vehicle: saline with Tween-80): 107 % of control; T/C [5]: 95 % of control; T/C (dose: 50.0 mg/kg/injection, schedule: Q04DX003 (ip), vehicle: saline with Tween-80): 109 % of control; T/C [6]: 87 % of control; T/C (dose: 100.0 mg/kg/injection, schedule: Q04DX003 (ip), vehicle: saline with Tween-80): 100 % of control

How did the T/C (dose: 12.5 mg/kg/injection, schedule: Q01DX009 (ip), vehicle: distilled water + Tween-80) turn out when `COC(=O)C(CO)NC(=O)OCc1ccc(OC)cc1` (centres undefined) was run?
The T/C was 87 % of control.

And the T/C (dose: 25.0 mg/kg/injection, schedule: Q01DX009 (ip), vehicle: distilled water + Tween-80)?
The T/C was 89 % of control.

What about the T/C (dose: 50.0 mg/kg/injection, schedule: Q01DX009 (ip), vehicle: distilled water + Tween-80) of the same compound?
The T/C was 104 % of control.

And the T/C (dose: 100.0 mg/kg/injection, schedule: Q01DX009 (ip), vehicle: distilled water + Tween-80)?
Its T/C is 114 % of control.

What does the source list for `O=[N+]([O-])c1ccccc1C=Nc1ccccc1`?
T/C (dose: 100.0 mg/kg/injection, schedule: Q01DX001 (ip), vehicle: Klucel (hydroxypropylcellulose) (HPC)): 100 % of control; T/C (dose: 100.0 mg/kg/injection, schedule: Q01DX009 (ip), vehicle: saline): 105 % of control; T/C [8]: 100 % of control; T/C (dose: 200.0 mg/kg/injection, schedule: Q01DX001 (ip), vehicle: Klucel (hydroxypropylcellulose) (HPC)): 104 % of control; T/C (dose: 200.0 mg/kg/injection, schedule: Q01DX009 (ip), vehicle: saline): 90 % of control; T/C [9]: 110 % of control; T/C (dose: 400.0 mg/kg/injection, schedule: Q01DX001 (ip), vehicle: Klucel (hydroxypropylcellulose) (HPC)): 95 % of control; T/C (dose: 400.0 mg/kg/injection, schedule: Q01DX009 (ip), vehicle: saline): 90 % of control; T/C [10]: 100 % of control

For `CC12C=CC(=O)C=C1CCC1C2C(O)CC2(C)C1CCC2(O)C(=O)COC(=O)Cc1ccc(N(CCCl)CCCl)cc1` (centres undefined), which T/C (dose: 3.5 mg/kg/injection, schedule: Q01DX009 (ip), vehicle: saline) is on record?
The T/C was 97 % of control.

What about the T/C (dose: 7.0 mg/kg/injection, schedule: Q01DX009 (ip), vehicle: saline) of the same compound?
The T/C was 97 % of control.

What about the T/C (dose: 14.0 mg/kg/injection, schedule: Q01DX009 (ip), vehicle: saline) of the same compound?
The T/C was 118 % of control.

What does the source list for `Cc1c(C(=O)O)nc(CC(O)C(Cl)(Cl)Cl)[nH]c1=O` (centres undefined)?
T/C [11]: 98 % of control; T/C [12]: 97 % of control; T/C [8]: 103 % of control; T/C [9]: 100 % of control; T/C [10]: 96 % of control

Which results are given for `CCOC(=O)C[Si](C)(C)C`?
T/C [11]: 99 % of control; T/C [12]: 99 % of control; T/C [8]: 97 % of control; T/C [9]: 101 % of control; T/C [10]: 109 % of control

Which T/C (dose: 3.13 mg/kg/injection, schedule: Q01DX009 (ip), vehicle: saline sonified) does the source give for `CC1(C)N=C(N)N=C(N)N1c1cccc(CCCCc2ccc(S(=O)(=O)F)cc2Cl)c1` here?
Its T/C is 109 % of control.

And the T/C (dose: 4.0 mg/kg/injection, schedule: Q01DX009 (ip), vehicle: saline)?
The T/C was 116 % of control.

And the T/C (dose: 4.0 mg/kg/injection, schedule: Q04DX003 (ip), vehicle: saline with Tween-80)?
The T/C was 100 % of control.

What about the T/C (dose: 6.0 mg/kg/injection, schedule: Q04DX003 (ip), vehicle: saline with Tween-80) of the same compound?
The T/C was 113 % of control.

What about the T/C [7] of the same compound?
Its T/C is 116 % of control.

And the T/C (dose: 9.0 mg/kg/injection, schedule: Q04DX003 (ip), vehicle: saline with Tween-80)?
The T/C was 118 % of control.

And the T/C (dose: 9.4 mg/kg/injection, schedule: Q01DX009 (ip), vehicle: saline)?
Its T/C is 116 % of control.

For `O=C(CCc1ccc(O)cc1)c1c(O)cc(O)cc1OC1OC(CO)C(O)C(O)C1O` (centres undefined), which T/C (dose: 115.0 mg/kg/injection, schedule: Q01DX010 (ip), vehicle: saline) is on record?
The T/C was 100 % of control.

What about the T/C (dose: 175.0 mg/kg/injection, schedule: Q01DX010 (ip), vehicle: saline) of the same compound?
The T/C was 109 % of control.

What about the T/C (dose: 265.0 mg/kg/injection, schedule: Q01DX010 (ip), vehicle: saline) of the same compound?
Its T/C is 100 % of control.

And the T/C (dose: 400.0 mg/kg/injection, schedule: Q01DX010 (ip), vehicle: saline)?
The T/C was 95 % of control.

What does the source list for `CCO/C=C1\SC(=S)N(c2ccc(O)cc2)C1=O`?
T/C [5]: 116 % of control; T/C [6]: 116 % of control; T/C (dose: 200.0 mg/kg/injection, schedule: Q01DX009 (ip), vehicle: saline with Tween-80): 116 % of control

`COC(OC)C1(O)CC(C(C)COC2CCCCO2)OC(=O)N1` (centres undefined) was tested. Which T/C [12] did it give?
The T/C was 102 % of control.

What about the T/C [8] of the same compound?
The T/C was 106 % of control.

And the T/C [9]?
The T/C was 106 % of control.

Which T/C [1] does the source give for `C#CCOC(=O)Nc1cccc2ccccc12` here?
Its T/C is 100 % of control.

What about the T/C [8] of the same compound?
The T/C was 100 % of control.

What about the T/C [2] of the same compound?
The T/C was 110 % of control.

And the T/C [9]?
The T/C was 100 % of control.

And the T/C (dose: 400.0 mg/kg/injection, schedule: Q01DX009 (ip), vehicle: Klucel (hydroxypropylcellulose) (HPC))?
The T/C was 120 % of control.

And the T/C [10]?
The T/C was 109 % of control.
